Experimental findings from patent publication US20220380430A1, “Non-Transgenic Functional Rescue of Neuropeptides” (Worcester Polytechnic Institute, priority 2021, published 2022) are described below.

Assay [1] has as its system C. elegans. In words: Single worm attraction assay (SWAA) of ascarosides. The format is in vivo. The following applies: for dwell time in cue vs vehicle: 1 μM, in words. On the procedure: The spot retention assay was adapted to allow for better characterization of individual worm behavior and robust interrogation of attraction to small molecules. The attractiveness of 1 μM ascr #8 (FIG. 11A) were compared across multiple strains of C. elegans (the wild-type N2 strain, the high incidence of male him-5 and him-8 strains, and the chemosensory cilia defective osm-3), using the novel behavioral assay, the single worm attraction assay (SWAA) (FIG. 11A). In this assay, individual animals were placed directly into the spot of the ascaroside cue (A) while simultaneously removing any potential of male-male contact. […] Likewise, a vehicle control (V) is also included, to account of any changes in dwell time that are driven by the components of the vehicle. The outer forty wells of a 48-well suspension culture plate (Olympus Plastics, Cat #: 25-103) were seeded with 200 μL of standard NGM agar. To prepare the plates for the assay, they were acclimated to room temperature, at which point each well was seeded with 65 μL of OP50 E. coli. The assay plates were then transferred to a 37° C. incubator with the lid tilted for 4 h to allow the bacterial culture to dry on the agar. Once the bacterial culture dried, the lid was replaced the plate was stored at 20° C. until used in the assay. Fifty to sixty L4 worms were segregated by sex and stored at 20° C. for 5 h to overnight to be assayed as young adults. 0.8 μL of either vehicle control or ascaroside #8 was placed in the center of the well corresponding to that condition within the quadrant being tested, following a random block design (FIG. 11A). A single worm was placed in each of the 10 wells to be assayed, and the plate was transferred to a light source and camera and recorded for 15 m. […] Raw dwell time values were calculated by subtracting the time a worm exited the cue (center of the well in spatial controls), from the time it entered, as in the SRA. This was determined per visit, and the average dwell time was calculated for each animal in the quadrant. Averages of the four-quadrant means were determined per plate, and a minimum of five plates were assayed per strain/condition. The mean raw dwell time across five plates was calculated and used for statistical analyses and graphical display. […] An “attractive visit” was first determined for each plate as any visit greater than two standard deviations above the mean dwell time within the vehicle control for that plate. Any individual visit meeting this threshold was scored as a “1”, and any below was scored a “0”. The percent visits per-worm that were attractive was determined, and the average of each quadrant taken. […] The average percent of attractive visits across five plates was calculated and used for statistical analyses and graphical display.

Assay [2] has as its system C. elegans. In words: Drop avoidance assay of ascr #8. The settings on record: in words. Format: in vivo. How it is done:
Because the defect in male response to ascr #8 was significant, and the SWAA was designed to detect attractive behaviors, it was sought to determine if flp-3 loss-of-function (lof) animals were in fact avoiding ascr #8. Using a previously described drop avoidance assay, forward moving animals were exposed to a drop of either vehicle control or ascr #8 and scored the avoidance index. […] The hermaphroditic behavior was unaffected by the loss of flp-3. (FIG. 12F).
Assays were performed as described previously in Chute, C. D. & Srinivasan, J. Semin. Cell Dev. Biol. 33, 18-24 (2014); Chute, C. D. et al. Nat. Commun. 10, 3186 (2019); and Hilliard, M. A. et al., EMBO J. 23, 1101-1111 (2004). Fifty to sixty L4 worms were segregated by sex and stored at 20° C. for 5 h to overnight to be assayed as young adults. One to four hours prior to the assay, the lids of unseeded plates were tilted to allow any excess moisture to evaporate off the plates. At the time of the assay, 10 or more animals were transferred onto each of the dried, unseeded plates. A drop of either water or 1 μM ascr #8 was placed on the tail of forward moving animals, and their response was scored as either an avoidance response, or no response. The total number of avoidances was divided by the total number of drops to generate an avoidance index for that plate. This was repeated for at least 10 plates over at least three different days.

Assay [3] concerns the target T1, NPR-10B (Caenorhabditis elegans, UniProt Q6EUU1).
T1 sequence (Q6EUU1 1-362): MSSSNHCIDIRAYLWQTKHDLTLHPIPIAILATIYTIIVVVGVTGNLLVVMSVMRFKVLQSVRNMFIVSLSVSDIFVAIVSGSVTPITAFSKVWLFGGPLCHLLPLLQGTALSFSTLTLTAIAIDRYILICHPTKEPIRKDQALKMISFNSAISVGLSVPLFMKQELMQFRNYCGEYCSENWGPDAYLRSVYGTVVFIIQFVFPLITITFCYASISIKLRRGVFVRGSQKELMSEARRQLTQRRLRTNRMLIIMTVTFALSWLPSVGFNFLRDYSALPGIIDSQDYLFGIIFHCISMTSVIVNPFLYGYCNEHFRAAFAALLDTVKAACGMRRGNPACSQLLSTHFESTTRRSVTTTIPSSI
In words: In vitro GPCR activation assay (CHO-K1 cells, aequorin, human Gα16), NPR-10B. Format: cell-based, C. elegans. The following applies: in words. How it is done: (§1) Using Chinese hamster ovarian (CHO) cell cultures stably expressing the promiscuous G protein, Gα16, and the calcium reporter, aequorin, it was observed that both isoforms of NPR-10 are activated by seven of the ten FLP-3 peptides, with half-maximal effective concentrations (EC50) in the nM range (FIG. 14A-FIG. 14H, Table V). […] This peptide contains an R-to-K mutation within the C-terminal motif, which may explain the lack of receptor activation.
(§2) The GPCR activation assay was performed as previously described Van Sinay, E. et al. Proc. Natl Acad. Sci. USA 114, E4065-e4074 (2017) and Peymen, K. et al. PLoS Genet. 15, e1007945 (2019). Briefly, npr-10 and frpr-16 cDNAs were cloned into the pcDNA3.1 TOPO expression vector (Thermo Fisher Scientific). A CHO-K1 cell line (PerkinElmer, ES-000-A24) stably expressing apo-aequorin targeted to the mitochondria (mtAEQ) and human Gα16 was transiently transfected with the receptor cDNA construct or the empty pcDNA3.1 vector using Lipofectamine LTX and Plus reagent (Thermo Fisher Scientific). Cells were shifted to 28° C. one day later and allowed to incubate for 24 h. On the day of the assay, cells were collected in BSA medium (DMEM/Ham's F12 with 15 mM HEPES, without phenol red, 0.1% BSA) and loaded with […] coelenterazine h (Thermo Fisher Scientific) for 4 h at room temperature. The incubated cells were then added to synthetic peptides dissolved in DMEM/BSA, and luminescence was measured for 30 s at […] using a Mithras LB940 (Berthold Technologies) or MicroBeta LumiJet luminometer (PerkinElmer). After 30 s of readout, 0.1% triton X-100 was added to lyse the cells, resulting in a maximal calcium response that was measured for 10 s. After initial screening, concentration-response curves were constructed for HPLC-purified FLP-3 peptides by subjecting the transfected cells to each peptide in a concentration range from 1 pM to 10 μM. Cells transfected with an empty vector were used as a negative control. Assays were performed in triplicate on at least two independent days. Concentration-response curves were fitted using Prism v. 7 (nonlinear regression analysis with a sigmoidal concentration-response equation).

Assay [4] concerns the target T2, FRPR-16 (Caenorhabditis elegans, UniProt Q21957).
T2 sequence (Q21957 1-340): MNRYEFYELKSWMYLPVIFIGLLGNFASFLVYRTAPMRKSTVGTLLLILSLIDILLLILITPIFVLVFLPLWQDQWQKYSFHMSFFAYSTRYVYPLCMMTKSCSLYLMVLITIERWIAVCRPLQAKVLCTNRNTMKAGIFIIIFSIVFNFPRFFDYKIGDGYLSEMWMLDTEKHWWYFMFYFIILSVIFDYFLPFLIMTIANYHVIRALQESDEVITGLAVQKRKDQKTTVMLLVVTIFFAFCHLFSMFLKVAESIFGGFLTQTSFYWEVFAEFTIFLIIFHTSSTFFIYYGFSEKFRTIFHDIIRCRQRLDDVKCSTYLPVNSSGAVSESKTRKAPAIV
Nature of the assay: In vitro GPCR activation assay (CHO-K1 cells, aequorin, human Gα16), FRPR-16. The format is cell-based, C. elegans. The following applies: calcium/aequorin luminescence in transfected CHO-K1 cells. How it is done:
as §2

Assay [5] relates to NPR-10A. In words: In vitro GPCR activation assay (CHO-K1 cells, aequorin, human Gα16), NPR-10A. The settings on record: in words. Format: cell-based, C. elegans. On the procedure: as §1
The GPCR activation assay was performed as previously described Van Sinay, E. et al. Proc. Natl Acad. Sci. USA 114, E4065-e4074 (2017) and Peymen, K. et al. PLoS Genet. 15, e1007945 (2019). Briefly, npr-10 and frpr-16 cDNAs were cloned into the pcDNA3.1 TOPO expression vector (Thermo Fisher Scientific). A CHO-K1 cell line (PerkinElmer, ES-000-A24) stably expressing apo-aequorin targeted to the mitochondria (mtAEQ) and human Gα16 was transiently transfected with the receptor cDNA construct or the empty pcDNA3.1 vector using Lipofectamine LTX and Plus reagent (Thermo Fisher Scientific). […] The incubated cells were then added to synthetic peptides dissolved in DMEM/BSA, and luminescence was measured for 30 s at […] using a Mithras LB940 (Berthold Technologies) or MicroBeta LumiJet luminometer (PerkinElmer). After 30 s of readout, 0.1% triton X-100 was added to lyse the cells, resulting in a maximal calcium response that was measured for 10 s. […]

No end group written: not given here.

`C[C@H](CC/C=C/C(=O)Nc1ccc(C(=O)O)cc1)O[C@@H]1O[C@@H](C)[C@H](O)C[C@H]1O` [ascr #8]: the “dwell time in cue vs vehicle” value in assay [1] (hermaphrodites, all strains) is reported as “significantly less time in ascr #8 than the vehicle”; in assay [1] (males, wild-type and him strains) it was “significant increase in the amount of time spent within ascr #8 spot compared to the vehicle control”. For the same compound, in assay [1] (males, 1 μM ascr #8), the “attractive visits to the cue” value is on record as 30-45%. The “avoidance of the cue” value in assay [2] (hermaphrodites) was “avoid”; in assay [2] (wild-type males, 1 μM ascr #8) it was “did not avoid the cue”.
As to “SADDSAPFGTMRF-NH2 [FLP-3-8, SADDSAPFGTMRFamide]”, the “activation of NPR-10 (NPR-10B)” value in assay [3] is “did not activate”. Further, the half-maximal effective concentration (EC50) in assay [4] stood at 1600 nM. Also, the “activation of NPR-10A” value in assay [5] is “did not activate”.
